The test system of assay [1] is FaDu-Luc subcutaneous xenograft. As to the kind of experiment: FaDu s.c. xenograft model in combination with radiation. Type of assay: in vivo, nude mice. As for the experimental part:
Luciferase-transduced FaDu-Luc cells were established by retrovirus-mediated gene transfer. […]. Then, helper-free recombinant retroviruses were produced by transfecting the above retroviral expression vector together with pGP and pE-Ampho plasmids (Takara Bio; Shiga, Japan), into 293T cells (ATCC; Manassas, USA). Next, FaDu cells were infected with the recombinant retroviruses, and were cultured for two weeks in the presence of puromycin (2 μg/mL). The infected cells were selected from a polyclonal proliferative population of the culture.
A luciferase-transduced human SCCHN cell line FaDu-Luc, which had been cultured in an RPMI-1640 medium containing 10% FBS, and penicillin and streptomycin, was adjusted to a concentration of 5×10^7 cells/mL with Hank's Balanced Salt Solution to prepare a cell suspension. […] Thirteen days after the cell inoculation, the tumor volume was analyzed using bioluminescence signal from FaDu-Luc cells. […] The bioluminescence signal was monitored using the IVIS […] series (PerkinElmer, Waltham, MA), consisting of a highly sensitive, cooled chargecoupled device camera. […] Data were analyzed using total photon flux emission (photons/second) in the ROIs. The total photon flux emission was calculated in accordance with the following calculation formulae: […]

Assay [2] deals with human endometrial cancer cell line HEC-108 xenograft. As to the kind of experiment: HEC-108 endometrial cancer xenograft as monotherapy (FIG. 18). Type of assay: in vivo, athymic mice. The following applies: 180 μg/kg i.v. Day 1 and Day 8. How it is done: A human endometrial cancer cell line HEC-108, which had been cultured in an E-MEM containing 15% FBS and antibiotics were adjusted to a concentration of 7.14×10^7 cells/mL with medium to prepare a cell suspension. The cell suspension was inoculated in a volume of 150 μL into a subcutaneous part of a right flank of athymic mice (CAnN.Cg-Foxnlnu/CrlCrlj, female, 6 weeks old, Charles River Japan Inc.). Thirteen days after cell inoculation (Day 1), the length and the width of a tumor in each mouse were measured by using an electronic digital caliper (Mitutoyo Corporation), so as to calculate the volume of the tumor in accordance with the following calculation formula: […]
On the basis of TV, the mice were randomly grouped (Day 1). Each group was consisted in six mice. Compound (1) was dissolved in DMSO and a solution was stored in the freezer before use. Compound (1) (180 μg/kg) was diluted in saline and intravenously injected on Day 1 and Day 8.

For assay [3], the system named is human endometrial cancer cell line AN3CA xenograft. As to the kind of experiment: AN3CA endometrial cancer xenograft as monotherapy (FIG. 18). Format: in vivo, nude mice. The conditions noted are these: 180 μg/kg i.v. Day 1 and Day 8. As for the experimental part: A human endometrial cancer cell line AN3CA, which had been cultured in an E-MEM containing 10% FBS, and penicillin-streptomycin, was adjusted to a concentration of 1.4×10^8 cells/mL with Hanks' Balanced Salt Solution to prepare a cell suspension, and the suspension was mixed with Geltrex® (Thermo Fisher Scientific Inc., #A1413202) in a ratio of 1:1 to prepare a cell suspension in a concentration of 7×10^7 cells/mL. The cell suspension was inoculated in a volume of 100 μL into a subcutaneous part of a right flank of nude mice, 6 weeks of ages (CAnN.Cg-Foxnlnu/CrlCrlj, female, Charles River Laboratories Japan Inc.). Twelve days after cell inoculation (Day 1), the shortest diameter and the longest diameter of a tumor in each mouse were measured by using an electronic digital caliper (Digimatic™ caliper, Mitutoyo Corporation), so as to calculate the volume of the tumor in accordance with the following calculation formulae: […]
On the basis of the volumes of tumors obtained on Day 1, the mice were grouped such that averages of the tumor volumes were substantially equal among the groups. The experiment was conducted on groups each consisting of five mice. The test compound was dissolved in DMSO and a solution was stored in the freezer before use. Immediately before the administration, the stock solution was diluted with saline. […]

In the case of `C=C1C[C@@H]2CC[C@@]34C[C@H]5O[C@H]6[C@@H](O3)[C@H]3O[C@H](CC[C@@H]3O[C@H]6C5O4)CC(=O)O[C@@H]3[C@@H](C)[C@@H]4O[C@@H]5C[C@]6(C[C@@H]7O[C@]8(C[C@H](C)[C@@H]9O[C@H](CN)[C@H](O)C[C@@H]9O8)C[C@H](C)[C@@H]7O6)O[C@@H]5C[C@@H]4O[C@H]3C[C@H]3O[C@@H](CC[C@@H]1O2)C[C@@H](C)C3=C` (stereo in doubt) [Compound (1)], the “Tumor Regression (%)” value in assay [1] (0.09 mg/kg i.v. day 1 and 8 + radiation 18 Gy day 4 and 11) is on record as 97%; in assay [1] (0.09 mg/kg i.v. day 1 and 8, without radiation) it was 0%. Further, the antitumor activity result is “tumor growth delay” in assay [2] and “tumor regression” in assay [3].
